Inconclusive results and toxic doses are left out.
Tested on: BDF1 mice, P388 leukemia ip, median survival T/C
Assay: NCI In Vivo Anticancer Drug Screen. Data for tumor model P388 Leukemia (intraperitoneal) in B6D2F1 (BDF1) mice
Settings: endpoint: median survival time, higher = longer survival
Outline: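 Vehicle-dosed animals serve as the reference; survival of compound-dosed, tumour-implanted mice is divided by it.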

[1] = dose: 50.0 mg/kg/injection, schedule: Q01DX009 (ip), vehicle: saline with Tween-80
[2] = dose: 200.0 mg/kg/injection, schedule: Q01DX009 (ip), vehicle: saline with Tween-80
[3] = dose: 50.0 mg/kg/injection, schedule: Q01DX009 (ip), vehicle: Klucel (hydroxypropylcellulose) (HPC)
[4] = dose: 100.0 mg/kg/injection, schedule: Q04DX003 (ip), vehicle: Klucel (hydroxypropylcellulose) (HPC)
[5] = dose: 200.0 mg/kg/injection, schedule: Q04DX003 (ip), vehicle: Klucel (hydroxypropylcellulose) (HPC)
[6] = dose: 400.0 mg/kg/injection, schedule: Q04DX003 (ip), vehicle: Klucel (hydroxypropylcellulose) (HPC)

In the case of `O=CC(O)C(O)C(O)C(O)CO` (centres undefined), the T/C (dose: 31.25 mg/kg/injection, schedule: Q01DX010 (ip), vehicle: saline) is reported as 107 % of control, the T/C (dose: 62.5 mg/kg/injection, schedule: Q01DX010 (ip), vehicle: saline) is reported as 115 % of control and the T/C (dose: 125.0 mg/kg/injection, schedule: Q01DX010 (ip), vehicle: saline) is reported as 115 % of control. The T/C (dose: 0.2 grams/kg/injection, schedule: Q03DX003 (ip), vehicle: water) was 96 % of control, the T/C (dose: 250.0 mg/kg/injection, schedule: Q01DX010 (ip), vehicle: saline) was 107 % of control and the T/C (dose: 0.4 grams/kg/injection, schedule: Q03DX003 (ip), vehicle: water) was 97 % of control. For the same compound, the T/C (dose: 0.8 grams/kg/injection, schedule: Q03DX003 (ip), vehicle: water) was 102 % of control, the T/C (dose: 1.5 grams/kg/injection, schedule: Q03DX003 (ip), vehicle: water) was 93 % of control and the T/C (dose: 3.0 grams/kg/injection, schedule: Q03DX003 (ip), vehicle: water) was 102 % of control. The T/C (dose: 6.0 grams/kg/injection, schedule: Q03DX003 (ip), vehicle: water) was 98 % of control, the T/C (dose: 12.0 grams/kg/injection, schedule: Q03DX003 (ip), vehicle: water) was 95 % of control and the T/C (dose: 16.0 grams/kg/injection, schedule: Q03DX003 (ip), vehicle: water) was 101 % of control.
`CC(C)(C)OC(=O)N1Cc2cc3ccccc3nc2C1` was tested, and the T/C (dose: 50.0 mg/kg/injection, schedule: Q04DX003 (ip), vehicle: saline with Tween-80) was 100 % of control, the T/C (dose: 100.0 mg/kg/injection, schedule: Q04DX003 (ip), vehicle: saline with Tween-80) was 118 % of control and the T/C (dose: 200.0 mg/kg/injection, schedule: Q04DX003 (ip), vehicle: saline with Tween-80) was 109 % of control.
In the case of `C=C(C)C(=O)OC1CCCCC1`, the T/C (dose: 100.0 mg/kg/injection, schedule: Q01DX009 (ip), vehicle: saline) is reported as 111 % of control, the T/C (dose: 200.0 mg/kg/injection, schedule: Q01DX009 (ip), vehicle: saline) is reported as 100 % of control and the T/C (dose: 400.0 mg/kg/injection, schedule: Q01DX009 (ip), vehicle: saline) is reported as 117 % of control.
With `Oc1ccccc1-c1nnc2n1N=C(c1ccc(-c3ccccc3)cc1)CS2` the T/C [1] was 98 % of control, the T/C (dose: 100.0 mg/kg/injection, schedule: Q01DX009 (ip), vehicle: saline with Tween-80) was 98 % of control and the T/C [2] was 92 % of control.
In the case of `CC(C)(O)C(Cl)(Cl)Cl`, the T/C (dose: 50.0 mg/kg/injection, schedule: Q04DX003 (ip), vehicle: saline) is reported as 115 % of control, the T/C (dose: 100.0 mg/kg/injection, schedule: Q04DX003 (ip), vehicle: saline) is reported as 111 % of control and the T/C (dose: 200.0 mg/kg/injection, schedule: Q04DX003 (ip), vehicle: saline) is reported as 107 % of control.
In the case of `Cc1ccc(S(=O)(=O)NCC(C)C)cc1`, the T/C [3] is reported as 94 % of control, the T/C (dose: 100.0 mg/kg/injection, schedule: Q01DX009 (ip), vehicle: Klucel (hydroxypropylcellulose) (HPC)) is reported as 86 % of control and the T/C (dose: 200.0 mg/kg/injection, schedule: Q01DX009 (ip), vehicle: Klucel (hydroxypropylcellulose) (HPC)) is reported as 104 % of control. For the same compound, the T/C (dose: 400.0 mg/kg/injection, schedule: Q01DX009 (ip), vehicle: Klucel (hydroxypropylcellulose) (HPC)) was 102 % of control.
For `OC1c2ccccc2C=Cc2ccccc21`, the T/C (dose: 25.0 mg/kg/injection, schedule: Q01DX001 (ip), vehicle: saline sonified) was 104 % of control, the T/C (dose: 50.0 mg/kg/injection, schedule: Q01DX001 (ip), vehicle: saline sonified) was 104 % of control and the T/C (dose: 100.0 mg/kg/injection, schedule: Q01DX001 (ip), vehicle: saline sonified) was 100 % of control.
In the case of `CC1C=CC(C)C(C(=O)c2ccccc2)C1C(=O)c1ccccc1` (centres undefined), the T/C [4] is reported as 104 % of control, the T/C [5] is reported as 100 % of control and the T/C [6] is reported as 100 % of control.
With `C(=N/c1ncn[nH]1)/Nc1ncn[nH]1` the T/C (dose: 12.5 mg/kg/injection, schedule: Q01DX009 (ip), vehicle: suspension in saline) was 100 % of control, the T/C (dose: 25.0 mg/kg/injection, schedule: Q01DX009 (ip), vehicle: suspension in saline) was 113 % of control and the T/C (dose: 50.0 mg/kg/injection, schedule: Q01DX009 (ip), vehicle: suspension in saline) was 118 % of control. For the same compound, the T/C (dose: 100.0 mg/kg/injection, schedule: Q01DX009 (ip), vehicle: suspension in saline) was 96 % of control.
For `C=C(C)C12OC3(c4ccccc4)OC1C1C4OC4(CO)C(O)C4(O)C(=O)C(C)=CC4C1(O3)C(C)C2OC(=O)/C=C/C=C/C=C/CCC` (centres undefined), the T/C (dose: 6.3 micrograms/kg/injection, schedule: Q## X009 (ip), vehicle: saline with Tween-80) was 109 % of control, the T/C (dose: 12.5 micrograms/kg/injection, schedule: Q## X009 (ip), vehicle: saline with Tween-80) was 106 % of control and the T/C (dose: 25.0 micrograms/kg/injection, schedule: Q## X009 (ip), vehicle: saline with Tween-80) was 109 % of control. For the same compound, the T/C (dose: 50.0 micrograms/kg/injection, schedule: Q## X009 (ip), vehicle: saline with Tween-80) was 106 % of control and the T/C (dose: 100.0 micrograms/kg/injection, schedule: Q## X009 (ip), vehicle: saline with Tween-80) was 168 % of control.
For `C[C@]1(O)CC[C@H]2[C@@H]3CCC4=CC(=O)CC[C@]4(C)[C@@]3(F)C(=O)C[C@@]21C`, the T/C (dose: 12.5 mg/kg/injection, schedule: Q01DX009 (ip), vehicle: Klucel (hydroxypropylcellulose) (HPC)) was 104 % of control, the T/C (dose: 25.0 mg/kg/injection, schedule: Q01DX009 (ip), vehicle: Klucel (hydroxypropylcellulose) (HPC)) was 109 % of control and the T/C [3] was 90 % of control. For the same compound, the T/C [4] was 100 % of control, the T/C [5] was 100 % of control and the T/C [6] was 104 % of control.
In the case of `O=[N+]([O-])c1ccccc1S(=O)(=O)Oc1ccccc1`, the T/C [4] is reported as 100 % of control, the T/C [5] is reported as 100 % of control and the T/C [6] is reported as 100 % of control.
For `CC1=CC(=O)NC1O` (centres undefined), the T/C (dose: 2.5 mg/kg/injection, schedule: Q01DX010 (ip), vehicle: saline) was 87 % of control, the T/C (dose: 10.0 mg/kg/injection, schedule: Q01DX010 (ip), vehicle: saline) was 91 % of control and the T/C (dose: 15.0 mg/kg/injection, schedule: Q01DX010 (ip), vehicle: saline) was 100 % of control.
With `O=C(/C=C\c1ccc(O)c(O)c1)OC1C(O)CC(OC(=O)/C=C/c2ccc(O)c(O)c2)(C(=O)O)CC1O` (centres undefined) the T/C (dose: 100.0 mg/kg/injection, schedule: Q01DX001 (ip), vehicle: saline) was 95 % of control, the T/C [4] was 100 % of control and the T/C (dose: 200.0 mg/kg/injection, schedule: Q01DX001 (ip), vehicle: saline) was 95 % of control. The T/C [5] was 100 % of control, the T/C (dose: 400.0 mg/kg/injection, schedule: Q01DX001 (ip), vehicle: saline) was 95 % of control and the T/C [6] was 95 % of control.
In the case of `CCCCCCCCCCCCOc1ccccc1C=O`, the T/C (dose: 50.0 mg/kg/injection, schedule: Q04DX003 (ip), vehicle: Klucel (hydroxypropylcellulose) (HPC)) is reported as 104 % of control, the T/C [4] is reported as 100 % of control and the T/C (dose: 100.0 mg/kg/injection, schedule: Q04DX003 (ip), vehicle: saline sonified) is reported as 118 % of control. For the same compound, the T/C [5] was 118 % of control, the T/C (dose: 200.0 mg/kg/injection, schedule: Q04DX003 (ip), vehicle: saline sonified) was 122 % of control and the T/C [6] was 109 % of control.
For `CN(C)c1ccc(/C=C/c2ccnc3ccc(Cl)cc23)cc1`, the T/C [1] was 100 % of control and the T/C [2] was 100 % of control.
For `CCCCCCCCC(=O)NCc1ccc(OC)cc1`, the T/C (dose: 100.0 mg/kg/injection, schedule: Q01DX001 (ip), vehicle: other) was 91 % of control, the T/C (dose: 200.0 mg/kg/injection, schedule: Q01DX001 (ip), vehicle: other) was 100 % of control and the T/C (dose: 400.0 mg/kg/injection, schedule: Q01DX001 (ip), vehicle: other) was 91 % of control.
In the case of `Cc1ccc(NC(=O)OCCSCCOC(=O)Nc2ccc(C)cc2)cc1`, the T/C (dose: 25.0 mg/kg/injection, schedule: Q04DX003 (ip), vehicle: other) is reported as 95 % of control, the T/C (dose: 50.0 mg/kg/injection, schedule: Q04DX003 (ip), vehicle: other) is reported as 90 % of control and the T/C (dose: 100.0 mg/kg/injection, schedule: Q04DX003 (ip), vehicle: other) is reported as 90 % of control. The T/C (dose: 200.0 mg/kg/injection, schedule: Q04DX003 (ip), vehicle: other) was 90 % of control and the T/C (dose: 400.0 mg/kg/injection, schedule: Q04DX003 (ip), vehicle: other) was 100 % of control.
With `O=C(/C=C/c1cccc(Br)c1)NCC(O)CO` (centres undefined) the T/C [2] was 95 % of control and the T/C (dose: 400.0 mg/kg/injection, schedule: Q01DX009 (ip), vehicle: saline with Tween-80) was 87 % of control.

Reference: PubChem BioAssay AID328 (DTP/NCI, 2004)
